Patent US4126686A, “Analgesic 3-(3-methyl-3-butenyl)-1,2,3,4,5,6-hexahydro-6,11-dimethyl-8-hydroxy-2,6 -methano-3-benzazocine” (priority 1976, dated 1978)
Where two headings read alike, the source gives them in different places.

Columns and labels:
[1] = tested on: male mice of the dd strain; assay: animal or person; assay type: in vivo, mouse (male; conditions: tail flick, mouse, subcutaneous administration
Description: (II) Analgesic activity by Tail Flick method:
The experiment is carried out according to the method of Tail Flick (D'Amour-Smith method) [J. Pharmacol., 72, 74 (1941)].
A light beam of an infrared lamp (100 V; 250W) is passed through a hole having a diameter of a half inch and is irradiated onto the end of the tail of each mouse (male dd strain; weight: 19-21 g) to effect a heat stimulation. […] The compound of formula (I), pentazocine or morphine is administered subcutaneously to the mice. At 15, 30, 60, 90 and 120 minutes after the administration, the heat stimulation is repeatedly carried out to the mice in a similar manner to that described above and after each heat stimulation the time until the flick reaction occurs is measured. […] ED50 is calculated according to the above-mentioned method of Litchfield and Wilcoxon.

[2] = tested on: male mice of the dd strain; assay: Analgesic activity by acetic acid writhing method; assay type: in vivo, mouse (male; conditions: mouse
Description: (I) Analgesic activity by acetic acid writhing method:
The experiment is carried out according to the method of Koster et al [Fed. Proc., 18, 412 (1959)].
Male mice of the dd strain weighing 19-21 g are used in groups, each consisting of 10 mice. The test compounds, i.e. the compound of formula (I), pentazocine and morphine are administered subcutaneously or orally to the test mice. Immediately after this, 0.2 ml of a 0.7% (v/v) aqueous solution of acetic acid is administered intraperitoneally to the test mice except those which has been administered orally with morphine, to which 0.2 ml of a 0.7% (v/v) aqueous solution of acetic acid is administered intraperitoneally at 15 minutes after a morphine administration. […] At 10 minutes after the administration of acetic acid, the number of writhes is counted for 10 minutes. […] ED50 is calculated according to the method of Litchfield and Wilcoxon [J. Pharmacol. & Exper. Therap., 96, 99 (1949)].

[3] = tested on: male rats of the Wistar strain; assay: Analgesic activity by bradykinin method; assay type: in vivo, rat (male; conditions: rat
Description: (IV) Analgesic activity by bradykinin method:
The experiment is carried out according to the method of Abe et al [Nihon Yakuri Gakkai Si (J. Japanese Pharmacological Academy) 67, 9 (1971)].
(§1) In this experiment, male rats of the Wistar strain weighing 210-260 g were used in groups, each consisting of 10 rats. A cannula is inserted into the right carotid artery of the rat anesthetized with ether. After recovering completely from ether anesthesis, 0.2 ml of a physiological salt solution containing bradykinin in an amount of about 2 μg/ml is injected retrogradely to the rat through the cannula. […] The compound of formula (I), pentazocine or morphine is administered subcutaneously or orally to the rat. At 15, 30, 60, 90 and 120 minutes after the administration of the test compound, bradykinin is injected repeatedly to the rat in a similar manner to that described above. […] ED50 is calculated according to the method of Litchfield and Wilcoxon [J. Pharmacol. & Exper. Therap., 96, 99 (1949 )].

[4] = tested on: male mice of the dd strain; assay: Analgesic activity by tail pinch method; assay type: in vivo, mouse (male; conditions: mouse
Description: (III) Analgesic activity by tail pinch method:
The experiment is carried out according to the method of H. Takagi et al [Jap. J. Pharmacol., 16, 287 (1966)].
In this experiment, male mice of the dd strain weighing 19-21 g are used in groups, each consisting of 10 mice. Before the experiment, animals which are sensitive to pressure stimulation are selected in the following manner.
The compound of formula (I), pentazocine or morphine is administered subcutaneously or orally to the selected mice. At 15, 30, 60, 90, and 120 minutes after the administration, an artery clip is repeatedly applied to the root of the tail of each mouse. […] ED50 is calculated according to the method of Litchfield and Wilcoxon [J. Pharmacol. & Exper. Therap., 96, 99 (1949)].

[5] = Margin of safety (R = LD50/ED50), bradykinin, rat; conditions: in vivo, sc, S.C. in rat
Description: (§2) The LD50 is calculated according to the method of Litchfield and Wilcoxon [J. of Pharmacol. and Exper. Therap., 96, 99 (1949)]. Male mice of the dd strain weighing 19-21 g and male rats of the Wistar strain weighing 80-100 g are used. One group consists of 10 mice or 10 rats. The compound of formula (I) and pentazocine are administered subcutaneously or orally to the test animals which are observed for one week.
as §1
The usefulness of the compound as medicament is expressed by margin of safety (R) of the compound which is calculated by (LD50 /ED50). […]

[6] = Acute toxicity (LD50) in rats; design: species or system rat (male, Wistar strain); conditions: in vivo, rat, observed one week
Description: as §2

[7] = Analgesic activity compared with pentazocine (general statement); assay type: in vivo; conditions: in words
[8] = Acute toxicity (LD50) in mice; design: species or system mouse (male, dd strain); conditions: in vivo, mouse, observed one week
Description: as §2

[9] = Margin of safety (R = LD50/ED50), acetic acid writhing, mouse; conditions: in vivo
Description: as §2
Male mice of the dd strain weighing 19-21 g are used in groups, each consisting of 10 mice. The test compounds, i.e. the compound of formula (I), pentazocine and morphine are administered subcutaneously or orally to the test mice. Immediately after this, 0.2 ml of a 0.7% (v/v) aqueous solution of acetic acid is administered intraperitoneally to the test mice except those which has been administered orally with morphine, to which 0.2 ml of a 0.7% (v/v) aqueous solution of acetic acid is administered intraperitoneally at 15 minutes after a morphine administration. The mice of a control group are not administered with the test compounds but with only the acetic acid solution in a similar manner to that described above. At 10 minutes after the administration of acetic acid, the number of writhes is counted for 10 minutes. When the writhing numbers of the test group decrease to below 50% of the corresponding numbers of the control group, the test compound is determined to be analgesically active. ED50 is calculated according to the method of Litchfield and Wilcoxon [J. Pharmacol. & Exper. Therap., 96, 99 (1949)].
The usefulness of the compound as medicament is expressed by margin of safety (R) of the compound which is calculated by (LD50 /ED50). Compounds having higher R are deemed to be more useful as medicament than those having lower R. The margins of safety of the compound of formula (I) and pentazocine are shown in Table 6.

[10] = oral administration, read-out: ED50
[11] = sc, subcutaneous administration, read-out: ED50
[12] = sc, subcutaneous administration

CN1CC[C@]23c4c5ccc(O)c4O[C@H]2[C@@H](O)C=C[C@H]3[C@H]1C5 [Morphine, morphine]
ED50 [1]: 5.2 mg/kg | ED50 ([2]; oral administration): 5.1 mg/kg | ED50 ([2]; subcutaneous administration): 0.56 mg/kg | ED50 ([3]; oral administration): 85 mg/kg | ED50 ([3]; subcutaneous administration): 4.8 mg/kg | ED50 ([4]; oral administration): 35.5 mg/kg | ED50 ([4]; subcutaneous administration): 3.5 mg/kg

C=C(C)CCN1CCC2(C)c3cc(O)ccc3CC1C2C (stereo not drawn) [Compound of formula (I), 3-(3-methyl-3-butenyl)-1,2,3,4,5,6-hexahydro-6,11-dimethyl-8-hydroxy-2,6-methano-3-benzazocine]
selectivity ratio [5]: 161 | ED50 ([1]; sc, read-out: ED50): 0.76 mg/kg | ED50 [2, 10]: 14.3 mg/kg | ED50 [2, 11]: 0.09 mg/kg | LD50 at 168 h [6, 12]: 61 mg/kg | LD50 at 168 h ([6]; oral administration): > 300 mg/kg | ED50 [3, 10]: 35 mg/kg | ED50 [3, 11]: 0.38 mg/kg | analgesic activity [7]: unexpectedly a better analgesic activity than the known pentazocine | ED50 [4, 10]: 29.3 mg/kg | ED50 [4, 11]: 0.51 mg/kg | LD50 at 168 h [8, 12]: 80 mg/kg | LD50 at 168 h ([8]; oral administration): 205 mg/kg | selectivity ratio ([9]; po, P.O. in mouse): 14.3 | selectivity ratio ([9]; sc, S.C. in mouse): 889

CC(C)=CCN1CCC2(C)c3cc(O)ccc3CC1C2C (stereo not drawn) [Pentazocine, 3-(3-methyl-2-butenyl)-1,2,3,4,5,6-hexahydro-6,11-dimethyl-8-hydroxy-2,6-methano-3-benzazocine]
selectivity ratio [5]: 15.7 | ED50 ([1]; sc, read-out: ED50): > 40 mg/kg | ED50 [2, 10]: 82 mg/kg | ED50 [2, 11]: 3.45 mg/kg | LD50 at 168 h [6, 12]: 165 mg/kg | LD50 at 168 h ([6]; oral administration): > 400 mg/kg | ED50 [3, 10]: > 100 mg/kg | ED50 [3, 11]: 10.5 mg/kg | ED50 [4, 10]: > 40 mg/kg | ED50 [4, 11]: > 40 mg/kg | LD50 at 168 h [8, 12]: 140 mg/kg | LD50 at 168 h ([8]; oral administration): 305 mg/kg | selectivity ratio ([9]; po, P.O. in mouse): 3.7 | selectivity ratio ([9]; sc, S.C. in mouse): 40.6
